According to patent publication US20240132484A1, “BROAD SPECTRUM ANTIVIRAL COMPOUNDS TARGETING THE SKI COMPLEX” (priority 2020, published 2024):
Where “and” joins values, the source holds several entries; their conditions need not be identical. Identical values can stand only once. Like-named read-outs stand apart in the source and are kept apart here.

Columns and labels:
[1] = tested on: cells (nuclei count)
[2] = tested on: SARS2; format: cell-based, SARS-CoV-2; conditions: for Percentage Infection Relative to Appropriate DMSO Control with Avg Background Subtraction: single well

CCN(CC)CCN(Cc1ccccc1)Cc1ccc(C)o1 [SILCS23]
Relative cell count to DMSO controls, Average 1 μM ([1]; 1 μM, toxicity data, 100=DMSO control): 123.69 | Relative cell count to DMSO controls, Average 5 μM ([1]; 5 μM, toxicity data, 100=DMSO control): 129.2 | Relative cell count to DMSO controls, Average 10 μM ([1]; 10 μM, toxicity data, 100=DMSO control): 125.61 | Relative cell count to DMSO controls, Average 25 μM ([1]; 25 μM, toxicity data, 100=DMSO control): 112.58 | Relative cell count to DMSO controls, Average 50 μM ([1]; 50 μM, toxicity data, 100=DMSO control): 92.88 | Toxicity Data, Average, Mean ([1]; Average of Exp 1-3, n 9, 1 uM): 123.69% | Toxicity Data, Average, Mean ([1]; Average of Exp 1-3, n 9, 5 uM): 129.20% | Toxicity Data, Average, Mean ([1]; Average of Exp 1-3, n 9, 10 uM): 125.61% | Toxicity Data, Average, Mean ([1]; Average of Exp 1-3, n 9, 25 uM): 112.58% | Toxicity Data, Average, Mean ([1]; Average of Exp 1-3, n 9, 50 uM): 92.88% | Relative cell count to DMSO controls, Average (for correlation analysis) ([1]; average value over the 5 tested concentrations (1 to 50 uM)): 116.79 | Infection Data, Average, Mean ([2]; Average of Exp 1-3, n 9, 1 uM): 83.26% | Infection Data, Average, Mean ([2]; Average of Exp 1-3, n 9, 5 uM): 72.94% | Infection Data, Average, Mean ([2]; Average of Exp 1-3, n 9, 10 uM): 71.95% | Infection Data, Average, Mean ([2]; Average of Exp 1-3, n 9, 25 uM): 42.51% | Infection Data, Average, Mean ([2]; Average of Exp 1-3, n 9, 50 uM): 25.76% | Percentage Infection Relative to Appropriate DMSO Control with Avg Background Subtraction ([2]; Exp 1 (SMW475), 1 uM): 84.61% and 99.83% and 96.53% | Percentage Infection Relative to Appropriate DMSO Control with Avg Background Subtraction ([2]; Exp 1 (SMW475), 5 uM): 76.20% and 84.17% and 85.48% | Percentage Infection Relative to Appropriate DMSO Control with Avg Background Subtraction ([2]; Exp 1 (SMW475), 10 uM): 57.63% and 66.75% and 71.82% | Percentage Infection Relative to Appropriate DMSO Control with Avg Background Subtraction ([2]; Exp 1 (SMW475), 25 uM): 23.73% and 16.03% and 21.54% | Percentage Infection Relative to Appropriate DMSO Control with Avg Background Subtraction ([2]; Exp 1 (SMW475), 50 uM): 11.05% and 12.93% and 12.05% | Percentage Infection Relative to Appropriate DMSO Control with Avg Background Subtraction ([2]; Exp 2 (SMW477), 1 uM): 76.88% and 82.87% and 95.55% | Percentage Infection Relative to Appropriate DMSO Control with Avg Background Subtraction ([2]; Exp 2 (SMW477), 5 uM): 77.18% and 66.56% and 59.07% | Percentage Infection Relative to Appropriate DMSO Control with Avg Background Subtraction ([2]; Exp 2 (SMW477), 10 uM): 81.53% and 45.87% and 61.92% | Percentage Infection Relative to Appropriate DMSO Control with Avg Background Subtraction ([2]; Exp 2 (SMW477), 25 uM): 42.76% and 36.42% and 27.04% | Percentage Infection Relative to Appropriate DMSO Control with Avg Background Subtraction ([2]; Exp 2 (SMW477), 50 uM): 22.07% and 19.29% and 19.84% | Percentage Infection Relative to Appropriate DMSO Control with Avg Background Subtraction ([2]; Exp 3 (SMW478), 1 uM): 74.83% and 73.82% and 64.40% | Percentage Infection Relative to Appropriate DMSO Control with Avg Background Subtraction ([2]; Exp 3 (SMW478), 5 uM): 80.66% and 70.90% and 56.23% | Percentage Infection Relative to Appropriate DMSO Control with Avg Background Subtraction ([2]; Exp 3 (SMW478), 10 uM): 84.08% and 95.62% and 82.31% | Percentage Infection Relative to Appropriate DMSO Control with Avg Background Subtraction ([2]; Exp 3 (SMW478), 25 uM): 59.17% and 74.77% and 81.13% | Percentage Infection Relative to Appropriate DMSO Control with Avg Background Subtraction ([2]; Exp 3 (SMW478), 50 uM): 42.28% and 47.99% and 44.36% | Percentage Inhibition Average 1 μM ([2]; SARS2, 1 μM): 16.74% | Screening data (Relative infection to DMSO controls) Average 1 μM ([2]; SARS2, 1 μM, 100=DMSO control): 83.26 | Percentage Inhibition Average 5 μM ([2]; SARS2, 5 μM): 27.06% | Screening data (Relative infection to DMSO controls) Average 5 μM ([2]; SARS2, 5 μM, 100=DMSO control): 72.94 | Percentage Inhibition Average 10 μM ([2]; SARS2, 10 μM): 28.05% | Screening data (Relative infection to DMSO controls) Average 10 μM ([2]; SARS2, 10 μM, 100=DMSO control): 71.95 | Percentage Inhibition Average 25 μM ([2]; SARS2, 25 μM): 57.49% | Screening data (Relative infection to DMSO controls) Average 25 μM ([2]; SARS2, 25 μM, 100=DMSO control): 42.51 | Percentage Inhibition Average 50 μM ([2]; SARS2, 50 μM): 74.24% | Screening data (Relative infection to DMSO controls) Average 50 μM ([2]; SARS2, 50 μM, 100=DMSO control): 25.76 | Average (relative infection to DMSO over the 5 tested concentrations) ([2]; SARS2, average over 1 to 50 uM, 100=DMSO control): 59.28
